Literature values, collected in patent US20250288650A1, “Therapeutic Regimens and Methods for Reducing Body Weight and/or Serum Lipids using a GLP-1R and GCGR Agonist” (Spitfire Pharma LLC, priority 2024, published 2025).

Columns and labels:
[1] = 6 weeks
[2] = over 26 weeks of administration

For CCCCCCCCCCCCCCCC(=O)N[C@@H](CCC(=O)NCCCC[C@H](NC(=O)[C@H](CC(=O)O)NC(=O)[C@H](CO)NC(=O)[C@@H](NC(=O)[C@H](Cc1ccccc1)NC(=O)[C@@H](NC(=O)CNC(=O)[C@H](CCC(N)=O)NC(=O)[C@H](CO)NC(=O)[C@@H](N)Cc1c[nH]cn1)[C@@H](C)O)[C@@H](C)O)C(=O)N[C@@H](CO)C(=O)N[C@@H](CCC(=O)O)C(=O)N[C@@H](Cc1ccc(O)cc1)C(=O)N[C@@H](CC(C)C)C(=O)N[C@@H](CC(=O)O)C(=O)N[C@@H](CO)C(=O)N[C@@H](CCC(=O)O)C(=O)N[C@@H](CCCNC(=N)N)C(=O)N[C@@H](C)C(=O)N[C@@H](CCCNC(=N)N)C(=O)N[C@@H](CC(=O)O)C(=O)N[C@@H](Cc1ccccc1)C(=O)N[C@H](C(=O)N[C@@H](C)C(=O)N[C@@H](Cc1c[nH]c2ccccc12)C(=O)N[C@@H](CC(C)C)C(=O)N[C@@H](CCC(=O)O)C(=O)N[C@@H](C)C(=O)NCC(=O)NCC(=O)O)C(C)C)C(=O)O [cotadutide], the “reduction in liver fat content” value [1] is given as 39% and the “degree of weight loss” value [2] is given as 5.4%.
